From PubChem BioAssay AID248 (DTP/NCI, 2004)
Values joined by “and” are separate entries in the source; they are usually repeats but may differ in a detail not shown here. Equal entries are not always repeated. Toxic doses and inconclusive results are not listed. Rule as the data show it: active = T/C of 150% or more; inactive = T/C below 125%.

Tested on: L1210 leukemia ip in BDF1 mice, survival T/C
Assay: NCI In Vivo Anticancer Drug Screen. Data for tumor model L1210 Leukemia (intraperitoneal) in B6D2F1 (BDF1) mice
Conditions: endpoint: mean survival time, higher = longer survival
In short: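 Tumor cells were implanted, animals were treated, and survival was followed. The result divides the treated measurement by the vehicle-control measurement.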

[1] = dose: 100.0 mg/kg/injection, schedule: Q01DX001 (ip), vehicle: carboxymethylcellulose (CMC)
[2] = dose: 100.0 mg/kg/injection, schedule: Q01DX001 (ip), vehicle: saline
[3] = dose: 200.0 mg/kg/injection, schedule: Q01DX001 (ip), vehicle: saline
[4] = dose: 400.0 mg/kg/injection, schedule: Q01DX001 (ip), vehicle: saline
[5] = dose: 100.0 mg/kg/injection, schedule: Q01DX001 (ip), vehicle: other
[6] = dose: 100.0 mg/kg/injection, schedule: Q04DX002 (ip), vehicle: Klucel (hydroxypropylcellulose) (HPC)
[7] = dose: 200.0 mg/kg/injection, schedule: Q04DX002 (ip), vehicle: Klucel (hydroxypropylcellulose) (HPC)
[8] = dose: 400.0 mg/kg/injection, schedule: Q04DX002 (ip), vehicle: Klucel (hydroxypropylcellulose) (HPC)
[9] = dose: 100.0 mg/kg/injection, schedule: Q01DX009 (ip), vehicle: saline with Tween-80
[10] = dose: 100.0 mg/kg/injection, schedule: Q04DX003 (ip), vehicle: saline with Tween-80
[11] = dose: 200.0 mg/kg/injection, schedule: Q01DX009 (ip), vehicle: saline with Tween-80
[12] = dose: 200.0 mg/kg/injection, schedule: Q04DX003 (ip), vehicle: saline with Tween-80
[13] = dose: 400.0 mg/kg/injection, schedule: Q04DX003 (ip), vehicle: saline with Tween-80
[14] = dose: 50.0 mg/kg/injection, schedule: Q01DX009 (ip), vehicle: saline with Tween-80
[15] = dose: 100.0 mg/kg/injection, schedule: Q01DX001 (ip), vehicle: saline with Tween-80
[16] = dose: 200.0 mg/kg/injection, schedule: Q01DX001 (ip), vehicle: saline with Tween-80
[17] = dose: 100.0 mg/kg/injection, schedule: Q01DX009 (ip), vehicle: Klucel (hydroxypropylcellulose) (HPC)
[18] = dose: 100.0 mg/kg/injection, schedule: Q04DX003 (ip), vehicle: Klucel (hydroxypropylcellulose) (HPC)
[19] = dose: 200.0 mg/kg/injection, schedule: Q01DX009 (ip), vehicle: Klucel (hydroxypropylcellulose) (HPC)
[20] = dose: 200.0 mg/kg/injection, schedule: Q04DX003 (ip), vehicle: Klucel (hydroxypropylcellulose) (HPC)
[21] = dose: 400.0 mg/kg/injection, schedule: Q04DX003 (ip), vehicle: Klucel (hydroxypropylcellulose) (HPC)

Measured: T/C

COC1OCC(NC(=O)C(F)(F)F)C(OC(C)=O)C1OC(C)=O (configuration not stated)
inactive: dose: 50.0 mg/kg/injection, schedule: Q01DX001 (ip), vehicle: carboxymethylcellulose (CMC) 94 % of control | [1] 100 % of control | dose: 200.0 mg/kg/injection, schedule: Q01DX001 (ip), vehicle: carboxymethylcellulose (CMC) 105 % of control | dose: 400.0 mg/kg/injection, schedule: Q01DX001 (ip), vehicle: carboxymethylcellulose (CMC) 100 % of control

c1ccc(-c2ccc3ncccc3c2)cc1
inactive: [2] 97 % of control | [3] 100 % of control | [4] 105 % of control

O=C(CC(O)c1ccccc1)Nc1cccnc1 (configuration not stated)
inactive: [5] 96 % of control

O=C(O)COc1ccc(C2CCc3ccccc32)cc1 (configuration not stated)
inactive: dose: 75.0 mg/kg/injection, schedule: Q01DX001 (ip), vehicle: Klucel (hydroxypropylcellulose) (HPC) 104 % of control | dose: 150.0 mg/kg/injection, schedule: Q01DX001 (ip), vehicle: Klucel (hydroxypropylcellulose) (HPC) 101 % of control | dose: 300.0 mg/kg/injection, schedule: Q01DX001 (ip), vehicle: Klucel (hydroxypropylcellulose) (HPC) 101 % of control

Clc1cc(Cc2ccc(N=C/C=C/c3ccccc3)c(Cl)c2)ccc1N=C/C=C\c1ccccc1
inactive: [6] 100 % of control | [7] 93 % of control | [8] 86 % of control

COC(CCC#N)c1ccccc1 (configuration not stated)
inactive: [9] 97 % of control | [10] 105 % of control | [11] 100 % of control | [12] 97 % of control | dose: 400.0 mg/kg/injection, schedule: Q01DX009 (ip), vehicle: saline with Tween-80 101 % of control | [13] 102 % of control

Cc1ccc([N+](=O)[O-])cc1NC(=O)SCCOC(=O)COc1ccc(Cl)cc1
inactive: [14] 97 % of control | [9] 97 % of control and 106 % of control | [11] 103 % of control

COc1ccccc1C1CCCC1OS(C)(=O)=O (configuration not stated)
inactive: dose: 75.0 mg/kg/injection, schedule: Q04DX003 (ip), vehicle: saline 103 % of control | [2] 98 % of control | dose: 150.0 mg/kg/injection, schedule: Q04DX003 (ip), vehicle: saline 100 % of control | [3] 107 % of control | dose: 300.0 mg/kg/injection, schedule: Q04DX003 (ip), vehicle: saline 108 % of control | [4] 96 % of control

Cc1cc(N(CCCl)CCCl)ccc1C=Nc1ccccc1-n1ccnc1C
inactive: dose: 75.0 mg/kg/injection, schedule: Q04DX002 (ip), vehicle: Klucel (hydroxypropylcellulose) (HPC) 98 % of control | dose: 150.0 mg/kg/injection, schedule: Q04DX002 (ip), vehicle: Klucel (hydroxypropylcellulose) (HPC) 98 % of control | dose: 300.0 mg/kg/injection, schedule: Q04DX002 (ip), vehicle: Klucel (hydroxypropylcellulose) (HPC) 98 % of control

CC12CCC3C(CCC4=CC(=O)CCC43C)C1CCCN2 (configuration not stated)
inactive: dose: 75.0 mg/kg/injection, schedule: Q01DX001 (sc), vehicle: steriod suspending solution 93 % of control | dose: 150.0 mg/kg/injection, schedule: Q01DX001 (sc), vehicle: steriod suspending solution 90 % of control

COc1ccc(CCNC(=O)/C=C\C(=O)O)cc1OC
inactive: [10] 100 % of control | [12] 98 % of control | [13] 96 % of control

CC12CCC(O)CC1=CCC1C2CCC2(C)C(C(O)CC(O)(C(F)(F)F)C(F)(F)F)CCC12 (configuration not stated)
inactive: [10] 92 % of control | [12] 93 % of control | [13] 93 % of control

Cc1nc2c(N)nn(C)c2nc1C
inactive: [9] 96 % of control | [11] 102 % of control

Cc1nc(C)c(Br)s1
inactive: dose: 25.0 mg/kg/injection, schedule: Q01DX009 (ip), vehicle: saline with Tween-80 97 % of control | [14] 96 % of control | [9] 112 % of control | [10] 105 % of control | [12] 110 % of control

COC(C(=O)O)c1cccc2ccccc12 (configuration not stated)
inactive: [6] 113 % of control | [7] 109 % of control | [8] 98 % of control

CC(=O)OCC1OC(Sc2ccc([N+](=O)[O-])cc2[N+](=O)[O-])C(OC(C)=O)C(OC(C)=O)C1OC(C)=O (configuration not stated)
inactive: [15] 96 % of control | [16] 101 % of control | dose: 400.0 mg/kg/injection, schedule: Q01DX001 (ip), vehicle: saline with Tween-80 93 % of control

OCCN1C(c2ccccc2)C1c1ccccc1 (configuration not stated)
inactive: [10] 102 % of control | [12] 93 % of control | [13] 97 % of control

CC[CH2][Sn]([Br])([CH2]CC(=O)OC)[CH2]CC(=O)OC
inactive: dose: 100.0 mg/kg/injection, schedule: Q04DX002 (ip), vehicle: saline with Tween-80 93 % of control | dose: 200.0 mg/kg/injection, schedule: Q04DX002 (ip), vehicle: saline with Tween-80 96 % of control

C[n+]1cccc(S(=O)(=O)[O-])c1
inactive: dose: 100.0 mg/kg/injection, schedule: Q04DX003 (ip), vehicle: saline 104 % of control | dose: 200.0 mg/kg/injection, schedule: Q04DX003 (ip), vehicle: saline 101 % of control | dose: 400.0 mg/kg/injection, schedule: Q04DX003 (ip), vehicle: saline 101 % of control

CCOC(=O)C(C)Cl (configuration not stated)
inactive: [17] 97 % of control | [18] 103 % of control | [19] 96 % of control | [20] 103 % of control | [21] 103 % of control

CC(C)N(CCCCO)C(C)C
inactive: [1] 91 % of control

O=C(O)CCCc1nccc2ccccc12
inactive: dose: 75.0 mg/kg/injection, schedule: Q01DX001 (ip), vehicle: saline 102 % of control | dose: 150.0 mg/kg/injection, schedule: Q01DX001 (ip), vehicle: saline 92 % of control

CCCCCC(C[N+](C)(C)C)C(=O)/C=C/c1ccc(Cl)cc1 (configuration not stated)
inactive: [18] 96 % of control | [20] 106 % of control

Nc1nc(N)c(N=Nc2ccccc2S(=O)(=O)O)c(=O)[nH]1
inactive: dose: 12.5 mg/kg/injection, schedule: Q01DX009 (ip), vehicle: saline 97 % of control | dose: 25.0 mg/kg/injection, schedule: Q01DX009 (ip), vehicle: saline 97 % of control | dose: 50.0 mg/kg/injection, schedule: Q01DX009 (ip), vehicle: saline 100 % of control | dose: 50.0 mg/kg/injection, schedule: Q04DX003 (ip), vehicle: saline 101 % of control | [2] 96 % of control | [3] 98 % of control | [4] 104 % of control

CCCP(=S)(CCC)P(=S)(CCC)CCC
inactive: [6] 100 % of control | [7] 92 % of control | [8] 92 % of control

CCC(C)(C)NC(N)=O
inactive: [6] 99 % of control | [7] 92 % of control | [8] 96 % of control

CCCCOc1ccc(OC(=O)Nc2cc(C)ccc2C)cc1
inactive: [17] 91 % of control | [18] 108 % of control | [19] 96 % of control | [20] 95 % of control | dose: 400.0 mg/kg/injection, schedule: Q01DX009 (ip), vehicle: Klucel (hydroxypropylcellulose) (HPC) 98 % of control | [21] 90 % of control

CN(CCC(=O)c1ccccc1)CCC(=O)c1ccccc1
inactive: [15] 93 % of control | [16] 94 % of control

NS(=O)(=O)c1ccc(NC(=O)Nc2cc([N+](=O)[O-])ccc2F)cc1
inactive: [18] 98 % of control | [20] 95 % of control | [21] 87 % of control

CC1CC(C)CC(C(O)C2CCCCC2)C1 (configuration not stated)
inactive: dose: 75.0 mg/kg/injection, schedule: Q01DX001 (ip), vehicle: other 101 % of control | dose: 150.0 mg/kg/injection, schedule: Q01DX001 (ip), vehicle: other 106 % of control

CC1(O)CCC2CC1C2(C)CO (configuration not stated)
inactive: dose: 50.0 mg/kg/injection, schedule: Q04DX003 (ip), vehicle: Klucel (hydroxypropylcellulose) (HPC) 108 % of control | [18] 101 % of control | [20] 106 % of control | [21] 111 % of control

CCCCCCS(=O)(=O)c1n[nH]c(=O)[nH]c1=O
inactive: [5] 98 % of control | dose: 200.0 mg/kg/injection, schedule: Q01DX001 (ip), vehicle: other 95 % of control | dose: 400.0 mg/kg/injection, schedule: Q01DX001 (ip), vehicle: other 101 % of control

COP(=O)(OC)C(=O)c1ccc([N+](=O)[O-])cc1
inactive: [2] 98 % of control | [3] 95 % of control | [4] 103 % of control
